Assay results: the NIST ThermoML archive (doi:10.1016/j.fluid.2018.11.011)
± gives the expanded uncertainty stated by the source.

Assay: activity coefficient (dimensionless); of the first substance listed, at infinite dilution; xn = mol fraction of the nth substance listed
Conditions: 101.33 kPa, Liquid, Chromatography, x1 = 0

ClCCCl [1,2-dichloroethane] + CCCCCCCCCC[N+](C)(C)CCCCCCCCCC.F[B-](F)(F)F
activity coefficient (323 K): 0.616 ± 0.065 | activity coefficient (338 K): 0.622 ± 0.066 | activity coefficient (353 K): 0.682 ± 0.071

ClCCCl [1,2-dichloroethane] + CCCCCCCCCC[N+](C)(C)CCCCCCCCCC.[O-][Cl+3]([O-])([O-])[O-]
activity coefficient (323 K): 0.464 ± 0.052 | activity coefficient (338 K): 0.494 ± 0.055 | activity coefficient (353 K): 0.482 ± 0.053

C=CCCCCC [1-heptene] + CCCCCCCCCC[N+](C)(C)CCCCCCCCCC.F[B-](F)(F)F
activity coefficient (308 K): 1.79 ± 0.19 | activity coefficient (323 K): 1.81 ± 0.19 | activity coefficient (338 K): 1.83 ± 0.19 | activity coefficient (353 K): 2.23 ± 0.23

C=CCCCCC [1-heptene] + CCCCCCCCCC[N+](C)(C)CCCCCCCCCC.[O-][Cl+3]([O-])([O-])[O-]
activity coefficient (308 K): 2.69 ± 0.28 | activity coefficient (323 K): 1.85 ± 0.19 | activity coefficient (338 K): 2.23 ± 0.23 | activity coefficient (353 K): 2.15 ± 0.23

C#CCCCCC [1-heptyne] + CCCCCCCCCC[N+](C)(C)CCCCCCCCCC.F[B-](F)(F)F
activity coefficient (308 K): 0.892 ± 0.091 | activity coefficient (323 K): 0.893 ± 0.091 | activity coefficient (338 K): 0.894 ± 0.091 | activity coefficient (353 K): 1.12 ± 0.12

C#CCCCCC [1-heptyne] + CCCCCCCCCC[N+](C)(C)CCCCCCCCCC.[O-][Cl+3]([O-])([O-])[O-]
activity coefficient (308 K): 1.14 ± 0.12 | activity coefficient (323 K): 1.1 ± 0.11 | activity coefficient (338 K): 1.17 ± 0.12 | activity coefficient (353 K): 1.18 ± 0.12

C#CCCCC [1-hexyne] + CCCCCCCCCC[N+](C)(C)CCCCCCCCCC.F[B-](F)(F)F
activity coefficient (308 K): 0.85 ± 0.087 | activity coefficient (323 K): 0.838 ± 0.086 | activity coefficient (338 K): 0.826 ± 0.085 | activity coefficient (353 K): 0.937 ± 0.096

C#CCCCC [1-hexyne] + CCCCCCCCCC[N+](C)(C)CCCCCCCCCC.[O-][Cl+3]([O-])([O-])[O-]
activity coefficient (308 K): 0.732 ± 0.076 | activity coefficient (323 K): 0.83 ± 0.085 | activity coefficient (338 K): 0.989 ± 0.1 | activity coefficient (353 K): 0.969 ± 0.099

C=CCCC [1-pentene] + CCCCCCCCCC[N+](C)(C)CCCCCCCCCC.F[B-](F)(F)F
activity coefficient (308 K): 1.27 ± 0.13 | activity coefficient (323 K): 1.2 ± 0.12 | activity coefficient (338 K): 1.13 ± 0.12 | activity coefficient (353 K): 1.26 ± 0.13

C=CCCC [1-pentene] + CCCCCCCCCC[N+](C)(C)CCCCCCCCCC.[O-][Cl+3]([O-])([O-])[O-]
activity coefficient (308 K): 1.88 ± 0.2 | activity coefficient (323 K): 1.56 ± 0.16 | activity coefficient (338 K): 1.37 ± 0.14 | activity coefficient (353 K): 1.31 ± 0.13

C/C=C(\C)CC [(E)-3-methyl-2-pentene] + CCCCCCCCCC[N+](C)(C)CCCCCCCCCC.F[B-](F)(F)F
activity coefficient (323 K): 1.71 ± 0.18 | activity coefficient (338 K): 1.3 ± 0.13 | activity coefficient (353 K): 1.43 ± 0.15

C/C=C(\C)CC [(E)-3-methyl-2-pentene] + CCCCCCCCCC[N+](C)(C)CCCCCCCCCC.[O-][Cl+3]([O-])([O-])[O-]
activity coefficient (323 K): 1.48 ± 0.15 | activity coefficient (338 K): 1.49 ± 0.15 | activity coefficient (353 K): 1.32 ± 0.14

C/C=C/C(C)C [(E)-4-methyl-2-pentene] + CCCCCCCCCC[N+](C)(C)CCCCCCCCCC.F[B-](F)(F)F
activity coefficient (323 K): 1.68 ± 0.17 | activity coefficient (338 K): 1.45 ± 0.15 | activity coefficient (353 K): 1.57 ± 0.16

C/C=C/C(C)C [(E)-4-methyl-2-pentene] + CCCCCCCCCC[N+](C)(C)CCCCCCCCCC.[O-][Cl+3]([O-])([O-])[O-]
activity coefficient (323 K): 1.68 ± 0.17 | activity coefficient (338 K): 1.72 ± 0.18 | activity coefficient (353 K): 1.46 ± 0.15

CC(C)=O [acetone] + CCCCCCCCCC[N+](C)(C)CCCCCCCCCC.F[B-](F)(F)F
activity coefficient (323 K): 0.991 ± 0.1 | activity coefficient (338 K): 0.833 ± 0.086 | activity coefficient (353 K): 0.86 ± 0.088

CC(C)=O [acetone] + CCCCCCCCCC[N+](C)(C)CCCCCCCCCC.[O-][Cl+3]([O-])([O-])[O-]
activity coefficient (323 K): 0.489 ± 0.054 | activity coefficient (338 K): 0.537 ± 0.058 | activity coefficient (353 K): 0.527 ± 0.057

CC#N [acetonitrile] + CCCCCCCCCC[N+](C)(C)CCCCCCCCCC.F[B-](F)(F)F
activity coefficient (323 K): 1.21 ± 0.12 | activity coefficient (338 K): 1.06 ± 0.11 | activity coefficient (353 K): 1.24 ± 0.13

CC#N [acetonitrile] + CCCCCCCCCC[N+](C)(C)CCCCCCCCCC.[O-][Cl+3]([O-])([O-])[O-]
activity coefficient (323 K): 0.543 ± 0.059 | activity coefficient (338 K): 0.511 ± 0.056 | activity coefficient (353 K): 0.46 ± 0.052

c1ccccc1 [benzene] + CCCCCCCCCC[N+](C)(C)CCCCCCCCCC.F[B-](F)(F)F
activity coefficient (323 K): 0.499 ± 0.055 | activity coefficient (338 K): 0.519 ± 0.057 | activity coefficient (353 K): 0.667 ± 0.07

c1ccccc1 [benzene] + CCCCCCCCCC[N+](C)(C)CCCCCCCCCC.[O-][Cl+3]([O-])([O-])[O-]
activity coefficient (323 K): 0.499 ± 0.055 | activity coefficient (338 K): 0.59 ± 0.063 | activity coefficient (353 K): 0.527 ± 0.057

CCCC [butane] + CCCCCCCCCC[N+](C)(C)CCCCCCCCCC.F[B-](F)(F)F
activity coefficient (308 K): 1.21 ± 0.12 | activity coefficient (323 K): 1.12 ± 0.12 | activity coefficient (338 K): 1.04 ± 0.1 | activity coefficient (353 K): 0.939 ± 0.096

CCCC [butane] + CCCCCCCCCC[N+](C)(C)CCCCCCCCCC.[O-][Cl+3]([O-])([O-])[O-]
activity coefficient (308 K): 1.36 ± 0.14 | activity coefficient (323 K): 1.32 ± 0.14 | activity coefficient (338 K): 1.28 ± 0.13 | activity coefficient (353 K): 1.24 ± 0.13

CCC(C)=O [butanone] + CCCCCCCCCC[N+](C)(C)CCCCCCCCCC.F[B-](F)(F)F
activity coefficient (323 K): 1.07 ± 0.11 | activity coefficient (338 K): 0.903 ± 0.092 | activity coefficient (353 K): 0.82 ± 0.084

CCC(C)=O [butanone] + CCCCCCCCCC[N+](C)(C)CCCCCCCCCC.[O-][Cl+3]([O-])([O-])[O-]
activity coefficient (323 K): 0.532 ± 0.058 | activity coefficient (338 K): 0.59 ± 0.063 | activity coefficient (353 K): 0.585 ± 0.063

C1CCCCCC1 [cycloheptane] + CCCCCCCCCC[N+](C)(C)CCCCCCCCCC.F[B-](F)(F)F
activity coefficient (308 K): 1.65 ± 0.17 | activity coefficient (323 K): 1.61 ± 0.17 | activity coefficient (338 K): 1.57 ± 0.16 | activity coefficient (353 K): 1.98 ± 0.21

C1CCCCCC1 [cycloheptane] + CCCCCCCCCC[N+](C)(C)CCCCCCCCCC.[O-][Cl+3]([O-])([O-])[O-]
activity coefficient (308 K): 2.29 ± 0.24 | activity coefficient (323 K): 2.04 ± 0.21 | activity coefficient (338 K): 1.91 ± 0.2 | activity coefficient (353 K): 1.78 ± 0.19

C1CCCCC1 [cyclohexane] + CCCCCCCCCC[N+](C)(C)CCCCCCCCCC.F[B-](F)(F)F
activity coefficient (308 K): 1.47 ± 0.15 | activity coefficient (323 K): 1.43 ± 0.15 | activity coefficient (338 K): 1.4 ± 0.14 | activity coefficient (353 K): 1.73 ± 0.18

C1CCCCC1 [cyclohexane] + CCCCCCCCCC[N+](C)(C)CCCCCCCCCC.[O-][Cl+3]([O-])([O-])[O-]
activity coefficient (308 K): 2.05 ± 0.21 | activity coefficient (323 K): 1.78 ± 0.19 | activity coefficient (338 K): 1.66 ± 0.17 | activity coefficient (353 K): 1.54 ± 0.16

O=C1CCCCC1 [cyclohexanone] + CCCCCCCCCC[N+](C)(C)CCCCCCCCCC.F[B-](F)(F)F
activity coefficient (323 K): 9.47 ± 1 | activity coefficient (338 K): 7.99 ± 0.84 | activity coefficient (353 K): 9.05 ± 0.95

O=C1CCCCC1 [cyclohexanone] + CCCCCCCCCC[N+](C)(C)CCCCCCCCCC.[O-][Cl+3]([O-])([O-])[O-]
activity coefficient (323 K): 11.7 ± 1.2 | activity coefficient (338 K): 9.68 ± 1 | activity coefficient (353 K): 8.46 ± 0.89

C1CCCC1 [cyclopentane] + CCCCCCCCCC[N+](C)(C)CCCCCCCCCC.F[B-](F)(F)F
activity coefficient (308 K): 1.21 ± 0.12 | activity coefficient (323 K): 1.17 ± 0.12 | activity coefficient (338 K): 1.13 ± 0.12 | activity coefficient (353 K): 1.28 ± 0.13

C1CCCC1 [cyclopentane] + CCCCCCCCCC[N+](C)(C)CCCCCCCCCC.[O-][Cl+3]([O-])([O-])[O-]
activity coefficient (308 K): 1.48 ± 0.15 | activity coefficient (323 K): 1.16 ± 0.12 | activity coefficient (338 K): 1.26 ± 0.13 | activity coefficient (353 K): 1.19 ± 0.12

CCOCC [diethyl ether] + CCCCCCCCCC[N+](C)(C)CCCCCCCCCC.F[B-](F)(F)F
activity coefficient (323 K): 1.08 ± 0.11 | activity coefficient (338 K): 0.769 ± 0.08 | activity coefficient (353 K): 0.79 ± 0.081
